Results as given in ChEMBL document CHEMBL1141636, “New ultra-short acting hypnotic: synthesis, biological evaluation, and metabolic profile of ethyl 8-oxo-5,6,7,8-tetrahydro-thiazolo[3,2-a][1,3]diazepin-3-carboxylate (HIE-124)” (Bioorg Med Chem Lett, 2008).

Experiments:
Mus musculus [1] = test: Hypnotic effect in mouse assessed as sleeping time at 50 mg/kg, iv by loss of righting reflex method; type: functional
Mus musculus [2] = test: Hypnotic effect in mouse assessed as sleeping time at 65 mg/kg, ip; type: functional; settings: route intraperitoneal
Mus musculus [3] = test: Acute tolerance in mouse assessed as sleeping time at 200 mg/kg, ip 3 times day after 3 days; type: ADME, organism-based; set-up: dose 200 mg/kg, route intraperitoneal; settings: in vivo, 72 h
Mus musculus [4] = test: Potentiation of thiopental-induced hypnosis in mouse assessed as sleeping time at 100 mg/kg, iv by loss of righting reflex method; type: functional
Mus musculus [5] = test: Potentiation of thiopental-induced hypnosis in mouse assessed as sleeping time at 100 mg/kg, ip; type: functional; settings: route intraperitoneal
Mus musculus [6] = test: Acute tolerance in mouse assessed as sleeping time at 200 mg/kg, ip; type: ADME, organism-based; set-up: dose 200 mg/kg, route intraperitoneal; settings: in vivo
Mus musculus [7] = test: Hypnotic effect in mouse assessed as sleeping time at 100 mg/kg, iv by loss of righting reflex method; type: functional
Mus musculus [8] = test: Potentiation of thiopental-induced hypnosis in mouse assessed as sleeping time at 50 mg/kg, iv by loss of righting reflex method; type: functional
Mus musculus [9] = test: Hypnotic effect in mouse assessed as sleeping time at 100 mg/kg, ip; type: functional; settings: route intraperitoneal
Mus musculus [10] = test: Hypnotic effect in mouse assessed as sleeping time at 200 mg/kg, ip; type: functional; settings: route intraperitoneal
Mus musculus [11] = test: Potentiation of thiopental-induced hypnosis in mouse assessed as sleeping time at 200 mg/kg, ip; type: functional; settings: route intraperitoneal

Row | SMILES | Time (Mus musculus [1]) [min] | Time (Mus musculus [2]) [min] | Time (Mus musculus [3]) [min] | Time (Mus musculus [4]) [min] | Time (Mus musculus [5]) [min] | Time (Mus musculus [6]) [min] | Time (Mus musculus [7]) [min] | Time (Mus musculus [8]) [min] | Time (Mus musculus [9]) [min] | Time (Mus musculus [10]) [min] | Time (Mus musculus [11]) [min]
1 | CCCC(C)C1(CC)C(=O)[N-]C(=S)NC1=O.[Na+] (configuration not stated) [THIOPENTAL SODIUM] | 4.9 | 15.2 | – | – | – | – | – | – | – | – | –
2 | CCOC(=O)C1=CSC2=NC(=O)CCCN12 | 0.75 | – | 8.7 | 25.7 | 49.2 | 10.3 | 1.48 | 19.9 | 2.4 | 9.1 | 155.7
